Results published in patent publication EP2644601A1, “Compounds with matrix-metalloproteinase inhibitory activity and imaging agents thereof” (Westfälische Wilhelms-Universität Münster, priority 2012, dated 2013).

Tests used:
Assay type in all cases: biochemical
[1] = target: T1, MMP-2 (Homo sapiens, UniProt P08253); assay: MMP compound screening with Fluorimetric SensoLyte 390 Generic MMP Activity Kit, recombinant MMP-2
T1 sequence (P08253 110-660): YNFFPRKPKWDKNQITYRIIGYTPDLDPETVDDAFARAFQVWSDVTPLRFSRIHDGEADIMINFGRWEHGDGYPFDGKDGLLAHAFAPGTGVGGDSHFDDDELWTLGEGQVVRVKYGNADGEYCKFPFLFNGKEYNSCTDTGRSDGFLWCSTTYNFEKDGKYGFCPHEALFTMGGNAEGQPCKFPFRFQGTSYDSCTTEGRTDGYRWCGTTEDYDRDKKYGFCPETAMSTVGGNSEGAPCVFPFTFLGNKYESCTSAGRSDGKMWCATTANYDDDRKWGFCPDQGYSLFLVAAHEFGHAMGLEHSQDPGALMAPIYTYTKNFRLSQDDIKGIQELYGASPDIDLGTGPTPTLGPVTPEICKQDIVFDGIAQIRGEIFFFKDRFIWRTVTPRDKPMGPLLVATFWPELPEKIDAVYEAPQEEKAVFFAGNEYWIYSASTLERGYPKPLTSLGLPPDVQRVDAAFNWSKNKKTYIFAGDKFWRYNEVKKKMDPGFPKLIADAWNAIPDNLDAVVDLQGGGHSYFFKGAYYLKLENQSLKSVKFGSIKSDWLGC
Description: (§1) The activities were determined using Fluorimetric SensoLyte® 390 Generic MMP Activity Kit from Anaspec (cat # 72202). This assay kit can detect the activity of several MMPs such as MMP-1, 2, 7, 8, 9, 13, 14,15,16 and 24.
(§2) For screening MMP compounds, activated 2 nM of recombinant MMP-2, 8, 9 or 13 are pre-incubated with MMP compound (inhibitor) for 30 min at 37°C. The substrate is added and the inhibition of MMP activity is expressed as % of total activity (without the inhibitor incubation).

[2] = target: MMP-8 (Homo sapiens, UniProt P22894); assay: MMP compound screening with Fluorimetric SensoLyte 390 Generic MMP Activity Kit, recombinant MMP-8
Description: as §1, §2

[3] = target: MMP-9 (Homo sapiens, UniProt P14780); assay: MMP compound screening with Fluorimetric SensoLyte 390 Generic MMP Activity Kit, recombinant MMP-9
Description: as §1, §2

[4] = target: MMP13 (Homo sapiens, UniProt P45452); assay: MMP compound screening with Fluorimetric SensoLyte 390 Generic MMP Activity Kit, recombinant MMP-13
Description: as §1, §2

Chain of MMP-8 (P22894 101-467, species assumed): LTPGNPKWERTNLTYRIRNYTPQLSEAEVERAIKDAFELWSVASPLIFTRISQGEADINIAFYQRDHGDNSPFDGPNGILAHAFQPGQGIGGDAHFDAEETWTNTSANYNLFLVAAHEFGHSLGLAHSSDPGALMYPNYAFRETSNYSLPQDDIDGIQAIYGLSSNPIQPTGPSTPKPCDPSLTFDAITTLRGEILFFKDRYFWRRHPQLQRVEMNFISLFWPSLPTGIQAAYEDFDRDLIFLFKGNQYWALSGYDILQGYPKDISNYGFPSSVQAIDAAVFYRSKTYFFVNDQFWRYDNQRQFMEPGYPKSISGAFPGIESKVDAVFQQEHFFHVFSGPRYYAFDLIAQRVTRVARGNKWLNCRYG
Chain of MMP-9 (P14780 107-707 limits assumed, species assumed): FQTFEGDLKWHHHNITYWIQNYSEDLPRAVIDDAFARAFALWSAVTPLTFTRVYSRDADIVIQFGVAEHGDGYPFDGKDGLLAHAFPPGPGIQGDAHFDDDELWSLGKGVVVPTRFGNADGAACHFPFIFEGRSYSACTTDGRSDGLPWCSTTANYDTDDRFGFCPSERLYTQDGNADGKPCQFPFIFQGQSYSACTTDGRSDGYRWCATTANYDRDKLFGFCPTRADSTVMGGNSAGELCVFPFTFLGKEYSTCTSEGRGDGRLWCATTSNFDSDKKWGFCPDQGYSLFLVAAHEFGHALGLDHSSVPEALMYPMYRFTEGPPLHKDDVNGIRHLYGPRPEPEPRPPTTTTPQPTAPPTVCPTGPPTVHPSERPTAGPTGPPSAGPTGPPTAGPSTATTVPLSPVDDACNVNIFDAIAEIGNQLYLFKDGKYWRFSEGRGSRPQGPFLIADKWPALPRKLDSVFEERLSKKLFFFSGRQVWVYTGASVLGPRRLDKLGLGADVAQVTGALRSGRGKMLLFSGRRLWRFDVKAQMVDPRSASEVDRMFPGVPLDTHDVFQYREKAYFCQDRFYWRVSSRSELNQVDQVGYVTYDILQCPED

inhibition at 0.1 µM ([1]; 0.1uM): 0%
inhibition at 1 µM ([1]; 1uM): 0%
inhibition at 0.1 µM ([2]; 0.1uM): 0%
inhibition at 1 µM ([2]; 1uM): 1%
inhibition at 0.1 µM ([3]; 0.1uM): 12%
inhibition at 1 µM ([3]; 1uM): 17%
inhibition at 0.1 µM ([4]; 0.1uM): 0%
inhibition at 1 µM ([4]; 1uM): 7%
SMILES: CCN1/C(=C/C=C/C=C/C2=[N+](CCCCCC(N)=O)c3ccc4c(S(=O)(=O)O)cc(S(=O)(=O)O)cc4c3C2(C)C)C(C)(C)c2c1ccc1c(S(=O)(=O)[O-])cc(S(=O)(=O)O)cc21 [Cy5.5]
